PMC6104608, “Design, synthesis, and evaluation of curcumin analogues as potential inhibitors of bacterial sialidase” (Journal of Enzyme Inhibition and Medicinal Chemistry, 2018)

What was measured:
S. pneumoniae Nan A [1] = target: T1, S. pneumoniae Nan A (Streptococcus pneumoniae, UniProt P62575); test: Enzyme kinetic study (inhibition mechanism and Ki) on Nan A; assay type: biochemical; details: for Inhibition type against Nan A: Lineweaver-Burk and Dixon plots; for Ki: nonlinear regression, SigmaPlot Enzyme Kinetics, read-out: Ki against Nan A
T1 construct: 6x His-tag (C); made in house; host or cells: E. coli BL21 (DE3)

[2] = target: T2, Vibrio cholerae sialidase (Vibrio cholerae serotype O1, UniProt P0C6E9); test: biochemical
T2 construct: purchased Sigma 72197

S. pneumoniae Nan A [3] = target: T1, S. pneumoniae Nan A; test: Fluorescence-based inhibition assay of S. pneumoniae Nan A with MUNANA substrate; assay type: biochemical; details: for IC50: 2.2 nM Nan A, 50 µM substrate, pH 7.5, triplicate, read-out: IC50 against S. pneumoniae Nan A

T1 sequence (P62575 319-822 limits assumed): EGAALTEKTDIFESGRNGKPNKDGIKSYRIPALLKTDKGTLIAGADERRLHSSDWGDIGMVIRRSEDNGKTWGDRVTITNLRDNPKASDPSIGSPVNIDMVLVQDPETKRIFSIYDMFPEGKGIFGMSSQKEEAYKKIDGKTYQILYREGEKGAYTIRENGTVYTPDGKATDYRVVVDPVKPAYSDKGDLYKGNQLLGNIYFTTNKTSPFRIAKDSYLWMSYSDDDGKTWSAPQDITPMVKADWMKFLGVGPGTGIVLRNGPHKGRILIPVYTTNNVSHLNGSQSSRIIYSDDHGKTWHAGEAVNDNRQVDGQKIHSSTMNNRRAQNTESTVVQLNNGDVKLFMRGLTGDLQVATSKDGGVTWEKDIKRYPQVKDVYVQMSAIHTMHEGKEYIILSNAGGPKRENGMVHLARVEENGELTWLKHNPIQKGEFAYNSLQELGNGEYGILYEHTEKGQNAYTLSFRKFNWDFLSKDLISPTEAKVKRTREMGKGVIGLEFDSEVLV
T2 sequence (P0C6E9 25-781): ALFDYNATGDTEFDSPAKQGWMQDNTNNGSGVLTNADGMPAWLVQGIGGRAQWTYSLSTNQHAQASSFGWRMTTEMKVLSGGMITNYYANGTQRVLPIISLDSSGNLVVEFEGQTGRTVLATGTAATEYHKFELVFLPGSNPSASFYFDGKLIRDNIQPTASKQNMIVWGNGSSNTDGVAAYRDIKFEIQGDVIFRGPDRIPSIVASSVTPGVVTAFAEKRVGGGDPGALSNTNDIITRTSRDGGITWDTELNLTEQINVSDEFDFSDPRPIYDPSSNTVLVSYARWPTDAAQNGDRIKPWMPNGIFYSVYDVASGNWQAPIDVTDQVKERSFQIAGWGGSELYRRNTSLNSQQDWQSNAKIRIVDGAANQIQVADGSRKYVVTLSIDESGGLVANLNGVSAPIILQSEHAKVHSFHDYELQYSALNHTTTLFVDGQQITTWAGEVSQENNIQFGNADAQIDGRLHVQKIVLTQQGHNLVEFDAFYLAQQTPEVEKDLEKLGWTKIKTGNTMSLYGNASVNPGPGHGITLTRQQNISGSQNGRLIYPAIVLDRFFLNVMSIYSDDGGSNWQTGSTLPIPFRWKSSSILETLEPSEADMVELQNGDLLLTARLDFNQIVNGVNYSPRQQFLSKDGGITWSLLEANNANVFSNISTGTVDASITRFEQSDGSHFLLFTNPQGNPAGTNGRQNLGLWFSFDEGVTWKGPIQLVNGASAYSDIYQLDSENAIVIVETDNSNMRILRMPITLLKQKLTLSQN

Structure (SMILES)	Inhibition type against Nan A (S. pneumoniae Nan A [1])	Ki (S. pneumoniae Nan A [1]) [µM]	IC50 [2] [µM]	IC50 (S. pneumoniae Nan A [3]) [µM]	melting point	fold improvement in Nan A inhibitory activity over curcumin (S. pneumoniae Nan A [3]; IC50 ratio versus curcumin (4a)) [fold]
COc1cc(/C=C/C(=O)/C=C(O)/C=C/c2ccc(O)c(OC)c2)ccc1O [Compound 4a, curcumin]	noncompetitive inhibition	1.3	5.3 ± 0.7	0.6 ± 0.1	–	–
COc1ccc(C=CC(=O)C=C(O)C=Cc2ccc(OC)c(O)c2)cc1O [Compound 4b, 5-Hydroxy-1,7-bis(3-hydroxy-4-methoxyphenyl)hepta-1,4,6-trien-3-one]	–	–	7.6 ± 0.5	1 ± 0.4	182 to 183 °C	–
COc1ccc(/C=C/C(=O)/C=C(O)/C=C/c2ccc(OC)c(OC)c2)cc1OC [Compound 4c, 1,7-Bis(3,4-dimethoxyphenyl)-5-hydroxyhepta-1,4,6-trien-3-one]	–	–	21.5 ± 7	3.4 ± 1	–	–
O=C(C=Cc1ccc(O)c(O)c1)C=C(O)C=Cc1ccc(O)c(O)c1 [Compound 4d, 1,7-bis(3,4-dihydroxyphenyl)-5-hydroxyhepta-1,4,6-trien-3-one]	–	–	11.9 ± 2	1.5 ± 0.7	300 °C (dec.)	–
O=C(C=Cc1ccc(O)cc1)C=C(O)C=Cc1ccc(O)cc1 [Compound 4e, 5-Hydroxy-1,7-bis(4-hydroxyphenyl)hepta-1,4,6-trien-3-one]	noncompetitive inhibition	1.2	15.1 ± 0.1	4 ± 1.2	–	–
COc1cc(C=CC(O)=C2CCCC(=Cc3ccc(O)c(OC)c3)C2=O)ccc1O [Compound 4f, 2–(1-Hydroxy-3-(4-hydroxy-3-methoxyphenyl)allylidene)-6-(4-hydroxy-3-methoxybenzylidene)cyclohexan-1-one]	–	–	24.9 ± 1.8	4.7 ± 0.5	182 to 183 °C	–
COc1cc(/C=C/C(O)=C/C(=O)/C=C/c2ccc(OC)c(OC)c2)ccc1O [Compound 5a, 7-(3,4-Dimethoxyphenyl)-5-hydroxy-1-(4-hydroxy-3-methoxyphenyl)hepta-1,4,6-trien-3-one]	–	–	11.7 ± 0.2	1.5 ± 0.7	–	–
COc1ccc(/C=C/C(O)=C/C(=O)/C=C/c2ccc(OC)c(OC)c2)cc1O [Compound 5b, 7-(3,4-Dimethoxyphenyl)-5-hydroxy-1-(3-hydroxy-4-methoxyphenyl)hepta-1,4,6-trien-3-one]	–	–	9.2 ± 0.2	0.6 ± 0.1	155 to 158 °C	–
COc1ccc(/C=C/C(O)=C/C(=O)/C=C/c2ccc(O)c(OC)c2)cc1O [Compound 5c, 5-Hydroxy-7-(4-hydroxy-3-methoxyphenyl)-1-(3-hydroxy-4-methoxyphenyl)hepta-1,4,6-trien-3-one]	–	–	7.7 ± 0.7	1 ± 0.4	137 to 140 °C	–
COc1cc(/C=C/C(=O)/C=C(O)/C=C/c2ccc(O)c(O)c2)ccc1O [Compound 5d, 1-(3,4-Dihydroxyphenyl)-5-hydroxy-7-(4-hydroxy-3-methoxyphenyl)hepta-1,4,6-trien-3-one]	–	–	2.7 ± 0.8	0.7 ± 0.2	–	–
COc1ccc(/C=C/C(=O)/C=C(O)/C=C/c2ccc(O)c(O)c2)cc1O [Compound 5e, 1-(3,4-Dihydroxyphenyl)-5-hydroxy-7-(3-hydroxy-4-methoxyphenyl)hepta-1,4,6-trien-3-one]	competitive inhibition	0.14	4.8 ± 1.5	0.2 ± 0.1	203 to 204 °C	3.0
CCOc1cc(/C=C/C(O)=C/C(=O)/C=C/c2ccc(O)c(OC)c2)ccc1O [Compound 5f, 1-(3-Ethoxy-4-hydroxyphenyl)-5-hydroxy-7-(4-hydroxy-3-methoxyphenyl)hepta-1,4,6-trien-3-one]	–	–	6.7 ± 0.6	1.5 ± 0.8	182 to 183 °C	–
COc1cc(C=CC(O)=CC(=O)C=Cc2cccnc2)ccc1O [Compound 5g, 5-Hydroxy-7-(4-hydroxy-3-methoxyphenyl)-1-(pyridin-3-yl)hepta-1,4,6-trien-3-one]	–	–	43.6 ± 0.1	4.4 ± 0.1	185 °C (dec.)	–
COc1cc(/C=C/C(=O)/C=C(O)/C=C/c2ccccc2)ccc1O [Compound 5h, 5-Hydroxy-7-(4-hydroxy-3-methoxyphenyl)-1-phenylhepta-1,4,6-trien-3-one]	–	–	–	7.1 ± 0.1	135 to 137 °C	–
COC(=O)CCCOc1ccc(C=CC(=O)C=C(O)C=Cc2ccc(O)c(OC)c2)cc1OC [Compound 5i, Methyl 4-(4-(5-hydroxy-7–(4-hydroxy-3-methoxyphenyl)-3-oxohepta-1,4,6-trien-1-yl)-2-methoxyphenoxy)-butanoate]	–	–	9.5 ± 1.5	1 ± 0.5	100 to 101 °C	–
COc1cc(/C=C/C(=O)/C=C(O)/C=C/c2ccc([N+](=O)[O-])cc2)ccc1O [Compound 5j, 5-Hydroxy-7-(4-hydroxy-3-methoxyphenyl)-1-(4-nitrophenyl)hepta-1,4,6-trien-3-one]	–	–	6.9 ± 1.8	0.9 ± 0.3	204 to 205 °C	–
COc1cc(/C=C/C(=O)/C=C(O)/C=C/c2ccc(C(F)(F)F)cc2)ccc1O [Compound 5k, 5-Hydroxy-7-(4-hydroxy-3-methoxyphenyl)-1-(4-(trifluoromethyl)phenyl)hepta-1,4,6-trien-3-one]	–	–	–	1 ± 0.1	158 to 160 °C	–
COc1cc(/C=C/C(=O)/C=C(O)/C=C/c2ccc(F)cc2)ccc1O [Compound 5l, 1-(4-Fluorophenyl)-5-hydroxy-7-(4-hydroxy-3-methoxyphenyl)hepta-1,4,6-trien-3-one]	–	–	–	1.8 ± 0.2	146 to 147 °C	–
COc1cc(/C=C/C(=O)/C=C(O)/C=C/c2ccc(Br)cc2)ccc1O [Compound 5m, 1-(4-Bromophenyl)-5-hydroxy-7-(4-hydroxy-3-methoxyphenyl)hepta-1,4,6-trien-3-one]	–	–	–	1 ± 0.2	148 to 149 °C	–
COc1cc(/C=C/C(=O)/C=C(O)/C=C/c2ccc(NC(C)=O)cc2)ccc1O [Compound 5n, N-(4–(5-Hydroxy-7–(4-hydroxy-3-methoxyphenyl)-3-oxohepta-1,4,6-trien-1-yl)phenyl)acetamide]	–	–	6.8 ± 0.8	1.8 ± 0.4	183 to 185 °C	–
COc1ccc(/C=C/C(O)=C/C(=O)/C=C/c2ccc(O)c(OC)c2)cc1 [Compound 5o, 5-Hydroxy-7-(4-hydroxy-3-methoxyphenyl)-1-(4-methoxyphenyl)hepta-1,4,6-trien-3-one]	–	–	4.2 ± 0.8	1.2 ± 0.1	143 to 145 °C	–
COc1cc(/C=C/C(=O)/C=C(O)/C=C/c2ccc(O)cc2)ccc1O [Compound 5p, 5-Hydroxy-7-(4-hydroxy-3-methoxyphenyl)-1-(4-hydroxyphenyl)hepta-1,4,6-trien-3-one]	–	–	4.3 ± 0.7	0.6 ± 0.2	–	–
COc1cc(/C=C/C(=O)/C=C(O)/C=C/c2ccc(N)cc2)ccc1O [Compound 5q, 1-(4-Aminophenyl)-5-hydroxy-7-(4-hydroxy-3-methoxyphenyl)hepta-1,4,6-trien-3-one]	noncompetitive inhibition	0.8	2.9 ± 0.9	1.6 ± 0.1	99 to 100 °C	–
COc1cc(/C=C/C(=O)/C=C(O)/C=C/c2ccc(N(C)C)cc2)ccc1O [Compound 5r, 1-(4-(Dimethylamino)phenyl)-5-hydroxy-7-(4-hydroxy-3-methoxyphenyl)hepta-1,4,6-trien-3-one]	–	–	1.9 ± 0.2	1.5 ± 0.2	–	–
COc1cc(/C=C/C(=O)/C=C(O)/C=C/c2ccc(N3CCCCC3)cc2)ccc1O [Compound 5s, 5-Hydroxy-7-(4-hydroxy-3-methoxyphenyl)-1-(4-(piperidin-1-yl)phenyl)hepta-1,4,6-trien-3-one]	–	–	–	1.5 ± 0.1	204 to 205 °C	–
COc1cc(CCC(=O)/C=C(\O)CCc2ccc(O)c(OC)c2)ccc1O [Compound 6, 1,7-Bis(4-hydroxy-3-methoxyphenyl)heptane-3,5-dione]	–	–	–	82.1 ± 7.6	–	–
COc1cc(/C=C/C(=O)/C=C(O)/C=C/c2ccc(OC(C)=O)c(OC)c2)ccc1OC(C)=O [Compound 7, 3-Hydroxy-5-oxohepta-1,3,6-triene-1,7-diyl)bis(2-methoxy-4,1-phenylene) diacetate]	–	–	37.5 ± 3.5	2.6 ± 0.6	–	–
COc1cc(C=Cc2cc(C=Cc3ccc(O)c(OC)c3)[nH]n2)ccc1O [Compound 8]	–	–	41.6 ± 18.7	6.2 ± 1.5	–	–
